In experiment [1] the test system is Rattus norvegicus. Put plainly: Oral antiinflammatory activity, measured in rats at the dose of 316 mg/kg. The format is functional.
The test system of experiment [2] is Rattus norvegicus. Put plainly: Percentage change in volume of pleural fluid in the 5-h Evans Blue-Carrageenan pleural assay for Indomethacin 4.0 mg/kg. It counts as functional.
For experiment [3], the system named is Rattus norvegicus. In words: Percentage change in volume of pleural fluid in the 5-h Evans Blue-Carrageenan pleural assay for the compound at dose 20 mg/kg. It counts as functional.
Experiment [4] deals with Rattus norvegicus. In words: Percentage change in volume of pleural fluid in the 5h- Evans Blue-Carrageenan pleural assay for the compound at dose 80 mg/kg. The format is functional.
Experiment [5] deals with T1, Cyclooxygenase (Bos taurus, UniProt O62664+O62698).
T1 sequence (O62664 whole entry): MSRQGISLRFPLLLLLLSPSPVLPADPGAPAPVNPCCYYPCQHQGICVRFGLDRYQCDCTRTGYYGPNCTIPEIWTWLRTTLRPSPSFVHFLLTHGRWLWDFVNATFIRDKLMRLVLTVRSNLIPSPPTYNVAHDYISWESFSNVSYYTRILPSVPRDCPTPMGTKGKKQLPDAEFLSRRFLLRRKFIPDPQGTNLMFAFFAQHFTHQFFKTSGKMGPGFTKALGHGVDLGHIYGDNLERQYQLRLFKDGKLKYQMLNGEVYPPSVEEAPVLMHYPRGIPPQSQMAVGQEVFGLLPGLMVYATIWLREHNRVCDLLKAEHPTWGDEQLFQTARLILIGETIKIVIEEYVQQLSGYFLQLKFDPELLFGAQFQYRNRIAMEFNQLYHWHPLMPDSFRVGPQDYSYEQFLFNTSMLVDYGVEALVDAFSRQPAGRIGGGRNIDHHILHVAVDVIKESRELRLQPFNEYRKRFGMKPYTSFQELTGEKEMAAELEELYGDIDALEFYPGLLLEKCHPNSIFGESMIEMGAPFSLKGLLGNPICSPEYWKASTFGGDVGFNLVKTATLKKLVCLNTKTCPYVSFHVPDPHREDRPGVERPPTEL
T1 sequence (O62698 whole entry): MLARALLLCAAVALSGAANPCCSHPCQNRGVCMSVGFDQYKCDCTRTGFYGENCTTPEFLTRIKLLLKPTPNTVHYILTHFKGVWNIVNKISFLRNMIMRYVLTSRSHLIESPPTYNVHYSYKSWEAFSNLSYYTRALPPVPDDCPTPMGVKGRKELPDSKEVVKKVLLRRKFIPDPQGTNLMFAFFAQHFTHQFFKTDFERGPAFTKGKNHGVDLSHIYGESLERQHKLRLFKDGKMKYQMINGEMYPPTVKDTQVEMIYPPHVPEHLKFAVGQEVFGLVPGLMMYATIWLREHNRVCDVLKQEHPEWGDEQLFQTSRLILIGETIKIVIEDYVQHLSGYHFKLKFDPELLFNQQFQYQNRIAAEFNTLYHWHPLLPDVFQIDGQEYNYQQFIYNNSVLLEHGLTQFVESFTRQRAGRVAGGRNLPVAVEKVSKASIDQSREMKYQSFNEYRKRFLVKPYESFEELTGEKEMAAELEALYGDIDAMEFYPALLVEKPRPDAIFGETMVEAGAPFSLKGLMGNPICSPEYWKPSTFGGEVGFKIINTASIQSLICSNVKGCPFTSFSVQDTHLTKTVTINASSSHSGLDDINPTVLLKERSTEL
Description: Inhibition of PG synthetase activity obtained from bovine seminal vesicles

Experiment [6] has as its system Rattus norvegicus. Put plainly: Percentage change in volume of pleural fluid in the 5-h Evans Blue-Carrageenan pleural assay for the compound at dose 4 mg/kg. The format is functional.
Experiment [7] relates to Rattus norvegicus. Put plainly: Percentage change in volume of pleural fluid in the 5-h Evans Blue-Carrageenan pleural assay for the compound at dose 100 mg/kg. The format is functional.
In experiment [8] the test system is Rattus norvegicus. In words: Relative Oral Anti inflammatory activity in the 5-h Evans Blue-Carrageenan pleural assay using indomethacin as reference compound; IA = inactive at 316 mg/kg. The format is functional, organism-based. The arrangement: dose 316 mg/kg.
In experiment [9] the test system is Rattus norvegicus. In words: Percentage change in volume of pleural fluid in the 5-h Evans Blue-Carrageenan pleural assay for the compound at (100 mg/kg). It counts as functional.
The subject of experiment [10] is Rattus norvegicus. In words: Percentage change in volume of pleural fluid in the 5-h Evans Blue-Carrageenan pleural assay for Indomethacin at dose 4.0 mg/kg. It counts as functional.
The species named for experiment [11] is Rattus norvegicus. In words: Percentage change in volume of pleural fluid in the 5-h Evans Blue-Carrageenan pleural assay for the compound. It counts as functional.
In experiment [12] the test system is Rattus norvegicus. In words: Percentage change in volume of pleural fluid in the 5-h Evans Blue-Carrageenan pleural assay for the compound at dose 20 m/kg. The format is functional.
For experiment [13], the system named is Rattus norvegicus. Put plainly: Percentage change in volume of pleural fluid in the 5-h Evans Blue-Carrageenan pleural assay for the compound at dose 100 m/kg. The format is functional.
The subject of experiment [14] is Rattus norvegicus. In words: Percentage change in volume of pleural fluid in the 5-h Evans Blue-Carrageenan pleural assay for the compound at dose 80 m/kg. It counts as functional.

As a reminder, the IC50 is the concentration that gives 50% inhibition. A higher IC50 goes with a need for much substance.

Values joined by “and” are separate entries in the source; they are usually repeats but may differ in a detail not shown here. Identical values can stand only once. Active and inactive are the calls of the source. The rule behind the calls is not given here.

Regarding `CC(Nc1ccccc1C(=O)c1ccc(Cl)cc1)C(=O)O` (configuration not stated), in experiment [1] (316 mg/kg), the Efficacy ratio is 1.62 and 1.42. The Change in experiment [2] is given as -30%; in experiment [3] it was -5%; in experiment [4] it was -33%. In [5], the IC50 stood at 60 µM.

In experiment [5], `Cc1ccc2c(-c3ccccc3)nc(=O)n(C(C)C)c2c1` [PROQUAZONE] came in with an IC50 of 0.07 µM.

For the compound `CC(Nc1ccccc1C(=O)c1ccc(Br)cc1)C(=O)O` (configuration not stated), the Efficacy ratio in [1] (316 mg/kg) was 1.43 and 1.46. For the same compound, the results for the Change in [2], in experiment [6] and in experiment [7] were -25%, -3% and -29%, respectively.

Take `COc1ccc(C(=O)c2ccccc2NC(C)C(=O)O)cc1` (configuration not stated): the Efficacy ratio in [1] (316 mg/kg) was 1.8 and 1.94. Further, the results for the Change in experiment [2], in experiment [6] and in [7] were -35%, -9% and -22%, respectively.

With `Cc1ccc(C(=O)c2ccccc2)c(NC(C)C(=O)O)c1` (configuration not stated), in [1] (316 mg/kg), the Efficacy ratio is 1.88 and 1.46. In addition, the Change in experiment [2] is reported as -28%; in [3], -19%.

Take `CC(C)Nc1ccccc1C(=O)c1ccccc1.Cl`: the Efficacy ratio in experiment [1] (316 mg/kg) was 1.13 and 1.46.

As to `Cc1ccc2c(-c3ccccc3)nc(=O)n(C(C)C(=O)O)c2c1` (configuration not stated), in experiment [5], the IC50 turned out to be 300 µM. Also, the Relative potency result in [8] was “inactive”.

As to `O=C(O)CNc1ccccc1C(=O)c1ccccc1`, in [1] (316 mg/kg), the Efficacy ratio is 0.98 and 1.47.

`CC(CNc1ccccc1C(=O)c1ccccc1)C(=O)O.Cl` (configuration not stated): in experiment [1] (316 mg/kg), the Efficacy ratio was 0.97 and 1.4.

Regarding `O=C(O)CCNc1ccccc1C(=O)c1ccccc1`, the Efficacy ratio in experiment [1] (316 mg/kg) is 1.35 and 1.46. Moreover, the Change in experiment [9] is -9%; in experiment [2], -41%.

In the case of `Cc1c(NCC(=O)O)cccc1C(=O)c1ccc(Cl)cc1`, in experiment [5], the IC50 was over 1000 µM.

As for `CC(Nc1ccccc1Oc1ccccc1)C(=O)O` (configuration not stated), the Efficacy ratio in experiment [1] (316 mg/kg) was 1.18 and 1.52.

`CC(Nc1ccccc1C(=O)c1ccc(Cl)cc1Cl)C(=O)O` (configuration not stated): in experiment [1] (316 mg/kg), the Efficacy ratio is 1.44 and 1.52. The Change in experiment [2] is -32%; in [6] it was -3%; in experiment [7], -34%.

`Cc1ccc(NC(C)C(=O)O)c(C(=O)c2ccccc2)c1` (configuration not stated): in [1], the Efficacy ratio is 1.52. Further, the Change in experiment [7] is on record as -15%; in experiment [10], -31%.

`CC(Nc1ccc(Cl)cc1C(=O)c1ccc(Br)cc1)C(=O)O` (configuration not stated): the Efficacy ratio in [1] (316 mg/kg) was 1.1 and 1.57.

In the case of `Cc1ccc(C(=O)c2ccccc2NC(C)C(=O)O)cc1` (configuration not stated), in experiment [1] (316 mg/kg), the Efficacy ratio was 1.39 and 1.52. The Change was -35% in [2], -8% in experiment [6] and -21% in experiment [7].

For `CC(Oc1ccccc1C(=O)c1ccccc1)C(=O)O` (configuration not stated), in experiment [1] (316 mg/kg), the Efficacy ratio was 0.98 and 1.65.

Take `CN(CC(=O)O)c1ccccc1C(=O)c1ccccc1.Cl`: the Change is recorded as -38% in experiment [2] and -13% in [11].

For `CC(Nc1ccc(C(=O)c2ccccc2)cc1)C(=O)O` (configuration not stated), in [1] (316 mg/kg), the Efficacy ratio is 1.37 and 1.91. The Change in experiment [9] was -4%; in experiment [2], -31%.

`CC(Nc1ccccc1C(=O)c1ccccc1)C(=O)O` (configuration not stated): the Change in experiment [12] was 4%; in experiment [13], -28%; in experiment [10] (4 mg/kg), -20% and -30%; in [14], -32%. In addition, the Efficacy ratio in experiment [1] (316 mg/kg) is 1.6 and 1.66.

With `COc1ccc(NC(C)C(=O)O)c(C(=O)c2ccccc2)c1` (configuration not stated), in [1] (316 mg/kg), the Efficacy ratio is 1.06 and 1.52.

`CC(Nc1ccc(Cl)cc1C(=O)c1ccccc1)C(=O)O` (configuration not stated): the Efficacy ratio in experiment [1] (316 mg/kg) is 1.96 and 1.57. Further, the Change in [6] was 6%; in experiment [7] (100 mg/kg) it was -28% and -18%.

For `CC(Nc1cccc(C(=O)c2ccccc2)c1)C(=O)O.Cl` (configuration not stated), the Efficacy ratio in experiment [1] (316 mg/kg) was 1.38 and 1.4. Moreover, the Change is on record as -15% in experiment [9] and -32% in experiment [2].

Source of the values: ChEMBL document CHEMBL1122614, “Antiinflammatory activity of N-(2-benzoylphenyl)alanine derivatives” (J Med Chem, 1984).
